This is an account of results in patent US9636299B2, “Method for treating diabetic retinopathy” (XAVIER UNIVERSITY OF LOUISIANA, priority 2012, dated 2017).

One assay has as its system LRP-1. In words: Streptozotocin-induced diabetic mice, retinal LRP-1 protein. The format is in vivo, mouse. As for the experimental part: Streptozotocin (STZ) induced diabetes. Twelve week old C57Bl/6 mice were used for this study. Mice were induced to have diabetes by intraperitoneal injection of 170 μg/g of streptozotocin (Sigma Aldrich, St. Louis, Mo.). Controls were injected with a vehicle (0.01M sodium citrate buffer). On the third day after STZ treatment, mice tail veins were bled to test the hyperglycemic status using blood sugar detection kit (Lifescan; Johnson & Johnson, Milpitas, Calif.). Mice with blood sugar levels of >300 mg/dL on the third day after STZ treatment were considered diabetic. Eye drop treatment containing 1% apoEdp or vehicle PBS was continued 4 times a day for 14 consecutive days. Intra-peritoneal (i/p) injection containing 40 mg/kg of apoEdp or vehicle control PBS was administered once daily for 14 consecutive days. On the 15th day post-treatment, mice were euthanized, their eyes enucleated, and the retinas dissected out to use for mRNA or Western blot analysis.

The next assay has as its system heparan sulfate (HS). As to the kind of experiment: Heparan sulfate shedding in high glucose-treated hRMECs (Western blot). The format is cell-based, human. The following applies: 30 mM glucose 72 hours, 50 or 100 μM apoEdp. An excerpt: Cell Culture. Primary cultures of human retina microvascular endothelial cells (hRMECs) were purchased from the Applied Cell Biology Research Institute and grown on attachment factor-coated plates in cell systems complete (CSC) medium (Cell Systems, Kirkland, Wash.) supplemented with 20% fetal bovine serum, culture boost (animal derived growth factors) and bac-off (antibiotics). The primary hRMECs were used in their passages 4 to 6. The 18-a.a. apoE mimetic peptide apoEdp (SEQ ID NO:3, Ac-LRKLRKRLLLRKLRKRLL-amide), derived from the human apolipoprotein E receptor-binding region (see SED ID NO:1) between residues 141 and 149, was synthesized (Genemed, Arlington, Tex.) with a purity of greater than 95%. The apoEdp peptide was dissolved in phosphate-buffered saline (“PBS”) at a concentration appropriate for further experimental use. […]
Western Blotting. […] The total protein concentration was determined using a BCA protein assay kit (Pierce, Rockford, Ill.). […] To ensure the equal loading of protein in each lane, each membrane was stripped and re-probed with an antibody against β-actin, and the chemiluminescence was detected as described previously. After scanning the blots with a flatbed scanner, band intensities were analyzed using ImageJ (NIH) and the relative intensity values were normalized to control values. […]

Each structure is given as a SMILES string. Residues, ends and D or L forms follow the SMILES beside them.

With `CC(=O)N[C@@H](CC(C)C)C(=O)N[C@@H](CCCNC(=N)N)C(=O)N[C@@H](CCCCN)C(=O)N[C@@H](CC(C)C)C(=O)N[C@@H](CCCNC(=N)N)C(=O)N[C@@H](CCCCN)C(=O)N[C@@H](CCCNC(=N)N)C(=O)N[C@@H](CC(C)C)C(=O)N[C@@H](CC(C)C)C(=O)N[C@@H](CC(C)C)C(=O)N[C@@H](CCCNC(=N)N)C(=O)N[C@@H](CCCCN)C(=O)N[C@@H](CC(C)C)C(=O)N[C@@H](CCCNC(=N)N)C(=O)N[C@@H](CCCCN)C(=O)N[C@@H](CCCNC(=N)N)C(=O)N[C@@H](CC(C)C)C(=O)N[C@@H](CC(C)C)C(N)=O` [apoEdp, Ac-LRKLRKRLLLRKLRKRLL-amide] (Ac-LRKLRKRLLLRKLRKRLL-NH2), the “Retinal LRP-1 protein levels” value in the assay on LRP-1 (1% apoEdp via eye drops) and with LRP-1 (1% apoEdp via intraperitoneal (i/p) injection) was “significant reduction” in each case. Further, the “High glucose-induced shedding of HS” value in the assay with heparan sulfate (HS) was “reduced the shedding”.
